“And” between values parts separate entries of the source, which are not always exact repeats. Equal entries are not always repeated. Inconclusive results and toxic doses are left out. How the source made its calls: active means survival T/C of 150% or more; inactive means T/C below 125% in these data.
System: P388 leukemia ip, CD2F1 mice, survival T/C
Test: NCI In Vivo Anticancer Drug Screen. Data for tumor model P388 Leukemia (intraperitoneal) in CD2F1 (CDF1) mice
Settings: endpoint: median survival time, higher = longer survival
In short: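 Mice carrying the transplanted tumor received test compound or vehicle. Survival was recorded in each group, and the value is the treated-group measurement divided by that of the vehicle-treated control group.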

[1] = dose: 60.0 mg/kg/injection, schedule: Q01DX005 (ip), vehicle: Klucel (hydroxypropylcellulose) (HPC)
[2] = dose: 120.0 mg/kg/injection, schedule: Q01DX005 (ip), vehicle: Klucel (hydroxypropylcellulose) (HPC)
[3] = dose: 240.0 mg/kg/injection, schedule: Q01DX005 (ip), vehicle: Klucel (hydroxypropylcellulose) (HPC)
[4] = dose: 12.5 mg/kg/injection, schedule: Q01DX009 (ip), vehicle: saline with Tween-80
[5] = dose: 25.0 mg/kg/injection, schedule: Q01DX009 (ip), vehicle: saline with Tween-80
[6] = dose: 50.0 mg/kg/injection, schedule: Q01DX009 (ip), vehicle: saline with Tween-80
[7] = dose: 100.0 mg/kg/injection, schedule: Q01DX009 (ip), vehicle: saline with Tween-80
[8] = dose: 12.5 mg/kg/injection, schedule: Q04DX002 (ip), vehicle: saline with Tween-80
[9] = dose: 25.0 mg/kg/injection, schedule: Q04DX002 (ip), vehicle: saline with Tween-80
[10] = dose: 100.0 mg/kg/injection, schedule: Q04DX003 (ip), vehicle: Klucel (hydroxypropylcellulose) (HPC)
[11] = dose: 200.0 mg/kg/injection, schedule: Q04DX003 (ip), vehicle: Klucel (hydroxypropylcellulose) (HPC)
[12] = dose: 400.0 mg/kg/injection, schedule: Q04DX003 (ip), vehicle: Klucel (hydroxypropylcellulose) (HPC)

Measured: T/C

CP(=Nc1ccccc1)(c1ccccc1)c1ccccc1
inactive: dose: 100.0 mg/kg/injection, schedule: Q01DX001 (ip), vehicle: saline with Tween-80 95 % of control | dose: 200.0 mg/kg/injection, schedule: Q01DX001 (ip), vehicle: saline with Tween-80 99 % of control | dose: 400.0 mg/kg/injection, schedule: Q01DX001 (ip), vehicle: saline with Tween-80 102 % of control

CN1C(=O)N(C)C2CC(=O)c3c(ccc4c3ncn4C)N2C1=O (stereo unspecified)
inactive: [1] 104 % of control | [2] 108 % of control | [3] 114 % of control

CCC(c1ccc(O)cc1)C(CC)c1ccc(O)c(CN(C)C)c1 (stereo unspecified)
inactive: dose: 15.0 mg/kg/injection, schedule: Q01DX005 (ip), vehicle: saline with Tween-80 100 % of control | dose: 30.0 mg/kg/injection, schedule: Q01DX005 (ip), vehicle: saline with Tween-80 100 % of control | dose: 60.0 mg/kg/injection, schedule: Q01DX005 (ip), vehicle: saline with Tween-80 96 % of control | dose: 120.0 mg/kg/injection, schedule: Q01DX005 (ip), vehicle: saline with Tween-80 94 % of control

N#CCCN(C(=O)Nc1ccc(Cl)c(Cl)c1)C1CCCCC1
inactive: [4] 98 % of control | [5] 101 % of control and 104 % of control | [6] 100 % of control and 103 % of control | [7] 91 % of control and 97 % of control

COc1cc(NCC(O)CN(CC(C)C)C2CCCC2)c2ncccc2c1 (stereo unspecified)
inactive: dose: 12.5 mg/kg/injection, schedule: Q01DX005 (ip), vehicle: saline 100 % of control | dose: 25.0 mg/kg/injection, schedule: Q01DX005 (ip), vehicle: saline 99 % of control

CC(=O)OC1CCC2(C)OC(=O)CC2C1 (stereo unspecified)
inactive: dose: 50.0 mg/kg/injection, schedule: Q01DX005 (ip), vehicle: saline with Tween-80 98 % of control | dose: 100.0 mg/kg/injection, schedule: Q01DX005 (ip), vehicle: saline with Tween-80 100 % of control | dose: 200.0 mg/kg/injection, schedule: Q01DX005 (ip), vehicle: saline with Tween-80 100 % of control

CC1=NOCC(=O)N1
inactive: dose: 50.0 mg/kg/injection, schedule: Q01DX005 (ip), vehicle: distilled water + alcohol 106 % of control | dose: 100.0 mg/kg/injection, schedule: Q01DX005 (ip), vehicle: distilled water + alcohol 102 % of control | dose: 200.0 mg/kg/injection, schedule: Q01DX005 (ip), vehicle: distilled water + alcohol 105 % of control

CC(C)N(/C=C/C(=O)c1ccccc1)C(C)C
inactive: [4] 99 % of control | [5] 100 % of control | [6] 94 % of control and 95 % of control

COC(=O)/C=C\C=[N+](/[O-])C(C)(C)C
inactive: dose: 12.5 mg/kg/injection, schedule: Q01DX001 (ip), vehicle: Klucel (hydroxypropylcellulose) (HPC) 114 % of control | dose: 25.0 mg/kg/injection, schedule: Q01DX001 (ip), vehicle: Klucel (hydroxypropylcellulose) (HPC) 113 % of control | dose: 50.0 mg/kg/injection, schedule: Q01DX001 (ip), vehicle: Klucel (hydroxypropylcellulose) (HPC) 113 % of control

O=C1CS(=O)(=O)CN1c1ccc(Cl)c(Cl)c1
inactive: dose: 50.0 mg/kg/injection, schedule: Q01DX005 (ip), vehicle: acetone 112 % of control | dose: 100.0 mg/kg/injection, schedule: Q01DX005 (ip), vehicle: acetone 109 % of control | dose: 200.0 mg/kg/injection, schedule: Q01DX005 (ip), vehicle: acetone 109 % of control

Cc1ccc(-c2nc(N)sc2N=Nc2ccc(Cl)cc2Cl)cc1
inactive: [1] 96 % of control | [2] 96 % of control | [3] 97 % of control

O=C(CC(=O)C(F)(F)F)c1cccs1.O=C(CC(=O)C(F)(F)F)c1cccs1.O=C(CC(=O)C(F)(F)F)c1cccs1.[Tb]
inactive: dose: 50.0 mg/kg/injection, schedule: Q01DX009 (ip), vehicle: saline 86 % of control | dose: 100.0 mg/kg/injection, schedule: Q01DX009 (ip), vehicle: saline 86 % of control | dose: 200.0 mg/kg/injection, schedule: Q01DX009 (ip), vehicle: saline 89 % of control

O=c1c2ccc(S(=O)(=O)c3ccc4c(=O)n5c6ccccc6nc5c5cccc3c45)c3cccc(c32)c2nc3ccccc3n12
inactive: [1] 86 % of control | [2] 88 % of control | [3] 99 % of control

COc1ccc(-c2nc(C)cc3cc(OC)c(OC)cc23)cc1OC
inactive: dose: 12.5 mg/kg/injection, schedule: Q01DX009 (ip), vehicle: water 98 % of control | dose: 25.0 mg/kg/injection, schedule: Q01DX009 (ip), vehicle: water 100 % of control | dose: 50.0 mg/kg/injection, schedule: Q01DX009 (ip), vehicle: water 100 % of control | dose: 100.0 mg/kg/injection, schedule: Q01DX009 (ip), vehicle: water 100 % of control

NC(=S)c1ccc(C2Nc3ccc(Cl)cc3N2)cc1 (stereo unspecified)
inactive: [8] 106 % of control | [9] 94 % of control | dose: 50.0 mg/kg/injection, schedule: Q04DX002 (ip), vehicle: saline with Tween-80 90 % of control

O=c1[nH]c(=O)n(C2OC(CCl)C(O)C2O)cc1F (stereo unspecified)
inactive: dose: 30.0 mg/kg/injection, schedule: Q04DX002 (ip), vehicle: saline 99 % of control | dose: 43.0 mg/kg/injection, schedule: Q04DX002 (ip), vehicle: water 104 % of control | dose: 60.0 mg/kg/injection, schedule: Q04DX002 (ip), vehicle: saline 102 % of control | dose: 86.0 mg/kg/injection, schedule: Q04DX002 (ip), vehicle: water 106 % of control | dose: 120.0 mg/kg/injection, schedule: Q04DX002 (ip), vehicle: saline 116 % of control | dose: 172.0 mg/kg/injection, schedule: Q04DX002 (ip), vehicle: water 113 % of control | dose: 240.0 mg/kg/injection, schedule: Q04DX002 (ip), vehicle: saline 109 % of control | dose: 344.0 mg/kg/injection, schedule: Q04DX002 (ip), vehicle: water 113 % of control

O=C(O)C(=O)O.[Co].[NH-]CC[NH-].[NH-]CC[NH-]
inactive: [8] 100 % of control | [9] 100 % of control

OCC1OC(OCC2OC(OC3(CO)OC(CO)C(O)C3O)C(O)C(O)C2O)C(O)C(O)C1O (stereo unspecified)
inactive: dose: 100.0 mg/kg/injection, schedule: Q01DX001 (ip), vehicle: saline 102 % of control | dose: 200.0 mg/kg/injection, schedule: Q01DX001 (ip), vehicle: saline 103 % of control | dose: 400.0 mg/kg/injection, schedule: Q01DX001 (ip), vehicle: saline 93 % of control

Nc1ccccc1-c1cncnc1N
inactive: [7] 98 % of control | dose: 200.0 mg/kg/injection, schedule: Q01DX009 (ip), vehicle: saline with Tween-80 101 % of control | dose: 400.0 mg/kg/injection, schedule: Q01DX009 (ip), vehicle: saline with Tween-80 106 % of control

CCCNC(=S)N/N=C(/C)c1nccc2ccccc12
inactive: [10] 108 % of control | [11] 101 % of control | [12] 99 % of control

CCC(=O)c1ccc(NC(=O)Nc2ncccn2)cc1
inactive: [1] 86 % of control | [2] 89 % of control | [3] 95 % of control

O=C(Nc1ccc(N=C=S)cc1Cl)c1ccc2ccccc2c1O
inactive: [10] 101 % of control and 105 % of control | [11] 100 % of control and 106 % of control | [12] 110 % of control and 123 % of control

Cc1cc(C)c(CC(=O)O)c(C)c1
inactive: dose: 25.0 mg/kg/injection, schedule: Q01DX009 (ip), vehicle: Klucel (hydroxypropylcellulose) (HPC) 111 % of control | dose: 50.0 mg/kg/injection, schedule: Q01DX009 (ip), vehicle: Klucel (hydroxypropylcellulose) (HPC) 106 % of control | dose: 100.0 mg/kg/injection, schedule: Q01DX009 (ip), vehicle: Klucel (hydroxypropylcellulose) (HPC) 105 % of control | dose: 200.0 mg/kg/injection, schedule: Q01DX009 (ip), vehicle: Klucel (hydroxypropylcellulose) (HPC) 107 % of control

Reference: PubChem BioAssay AID330 (DTP/NCI, 2004)
